The nature of data set [1]: Pharmacokinetics and excretion in bile duct-cannulated dog, single IV dose. It counts as in vivo, beagle dogs. As to conditions: IV 0.075 mg/kg, up to 48 h, Mean SD. As to the method:
Male bile duct-cannulated beagle dogs or Sprague Dawley rats (n=3) were given a single intravenous (IV) dose of Compound 1. Plasma, urine and bile samples were collected from the dogs, and blood, urine, bile and feces samples were collected from rats up to 48 hours post-dose. Blood samples were kept on wet ice after collection until centrifuged for separation of plasma. Urine samples were collected at intervals 0 to 4, 4 to 8, 8 to 24, and 24 to 48 hours post-dose into collection tubes on wet ice. Bile samples were collected at intervals 0 to 4, 4 to 8, 8 to 24, and 24 to 48 hours post-dose into collection tubes cooled via an ice pack. Feces samples for rats were collected over 0 to 24 hour interval. All samples were transferred into properly labeled tubes and stored at −70° C. until pending shipment to the bioanalytical facility. All samples were analyzed using LC-MS/MS and the pharmacokinetic parameters of Compound 1 were determined with Phoenix WinNonlin using non-compartmental analysis.
Data are shown as Mean SD. NC indicates Not Collected.

The nature of data set [2]: Pharmacokinetics in wild-type mice with or without rifampin co-dose. It is filed as in vivo, wild-type FVB male mice. As to the method: Age-matched Oatp1a/1b cluster-knockout, OATP1B1- or OATP1B3-knockin mice humanized on the Oatp1a/1b-knockout background, and wild-type FVB male mice were purchased from Taconic Biosciences (Hudson, N.Y., USA). Mice were between 8 and 10 weeks of age (22-34 g) at the time of study. Compound 1 was administered at a dose of 0.5 mg/kg coadministered with either vehicle or rifampin (30 mg/kg). Blood and liver samples were collected at 0.083, 0.25, 0.5, 1, 1.5, 3, 6 hours. Plasma was isolated from blood samples by centrifugation. All samples were stored at −80° C. until bioanalysis.
Compound 1 was dosed via intravenous administration to WT, humanized, and KO mice. Blood, urine, and feces were collected from the animals over 6 hours. Blood spots were collected and expelled FTA™ DMPK-B DBS Card (GE Healthcare, Life Sciences, Whatman™) within the appropriate sample circle. Pharmacokinetics of Compound 1 in WT animals was also assessed after co-administration with rifampin. Liver samples were also collected from WT animals and frozen until analysis. All samples were analyzed using LC-MS/MS and the pharmacokinetics parameters of Compound 1 were determined with Phoenix WinNonlin using non-compartmental analysis.
FIG. 2A through 2C show an in vivo PK profile and elimination of Compound 1 with and without a co-dose of the Oatp/OATP inhibitor Rifampin in different mouse models.

For the next data set, the target named is T1, OATP1B3 (Homo sapiens, UniProt Q9NPD5).
T1 construct: expressed in transfected cells; host or cells: HEK293-FT
T1 sequence (Q9NPD5 1-702): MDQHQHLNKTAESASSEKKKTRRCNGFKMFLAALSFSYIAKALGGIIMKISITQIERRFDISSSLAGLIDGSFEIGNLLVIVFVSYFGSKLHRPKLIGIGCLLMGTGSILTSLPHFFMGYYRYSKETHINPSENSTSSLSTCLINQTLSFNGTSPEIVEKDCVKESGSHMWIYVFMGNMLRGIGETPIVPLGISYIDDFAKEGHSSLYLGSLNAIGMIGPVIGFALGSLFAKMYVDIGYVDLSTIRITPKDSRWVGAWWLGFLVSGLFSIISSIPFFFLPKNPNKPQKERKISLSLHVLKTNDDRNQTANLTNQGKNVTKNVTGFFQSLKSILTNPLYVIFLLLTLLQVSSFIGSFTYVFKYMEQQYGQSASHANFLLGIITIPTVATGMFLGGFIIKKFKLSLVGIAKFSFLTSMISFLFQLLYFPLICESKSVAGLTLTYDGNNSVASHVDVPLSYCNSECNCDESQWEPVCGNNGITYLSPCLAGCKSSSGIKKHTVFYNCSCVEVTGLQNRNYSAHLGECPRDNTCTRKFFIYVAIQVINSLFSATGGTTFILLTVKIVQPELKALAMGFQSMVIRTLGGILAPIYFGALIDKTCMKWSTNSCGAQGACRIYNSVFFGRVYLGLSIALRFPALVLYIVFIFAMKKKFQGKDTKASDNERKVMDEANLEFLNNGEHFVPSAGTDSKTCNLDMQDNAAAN
In words: Uptake in HEK293 cells overexpressing OATP1B3. It is filed as in vitro ADME. As to the method:
TransportoCells™ (Corning, N.Y., USA) expressing OATP2B1, NTCP, and HEK293-FT cells stably transfected with the vector containing OATP1B1 cDNA or OATP1B3 cDNA or empty vector were grown in a Dulbecoo's modified Eagle's medium fortified with 10% fetal calf serum and 2 mmol/L sodium butyrate (for NTCP only) in a humidified incubator at 37° C. and 5% CO2. Cells were harvested at 90% confluence and then seeded in poly-D-lysine-coated 24-well 24 h prior to transporter assay. Cells were washed twice and pre-incubated with 200 μL of pre-warmed Krebs-Henseleit buffer. After pre-incubation, cells were incubated with 3 or 10 μmol L-1 of Compound 1 in presence or absence of 100 μmol L-1 of inhibitors (Rifamycin SV for OATP2B1, Troglitazone for NTCP, Rifamycin for OATP1B1 and OATP1B3). The transport reaction was terminated by aspirating the buffer from the wells at designated time. After washing three times with 200 μL of ice-cold Krebs-Henseleit buffer, the cells were lysed and the resulting cellular lysates were analyzed by LC-MS/MS.
Concentration-dependent uptake of Compound 1 via OATP1B1 and OATP1B3 were conducted with a concentration range of 0.25-100 μmol L-1 under linear uptake. All experiments were run in triplicates.

The text below walks through data of patent US12564600B2, “System for enhancing therapeutic compliance of the anti-cancer compound E7766” (Eisai R&D Management Co., Ltd., priority 2019, dated 2026).

“Also recorded” adds a separate entry of the source.

For `O=[P@]1(S)OC[C@H]2O[C@@H]3[C@H](F)[C@@H]2O[P@](=O)(S)OC[C@H]2O[C@H]([C@H](F)[C@@H]2O1)n1cnc2c(ncnc21)NC/C=C/CNc1ncnc2c1ncn23` [Compound 1], the “% Ae, bile” value in data set [1] came to 87.9 ± 30.5%. Moreover, the fold decrease of liver/plasma Kp with rifampin in data set [2] (male, FVB, mouse, liver and plasma, with rifampin 30 mg/kg co-dosed, wild type mice, IV, read-out: decrease of Kp (liver/plasma) in the presence of Rifampin) is 5. The “decrease of biliary excretion on co-dosing rifampin” value in data set [2] (mouse models of FIG. 2A-2C (wild type and OATP1Bs humanized), rifampin co-dose) is 66-79%. Besides, the “increase of Cmax in the presence of rifampin” value in data set [2] (wild type mice, IV) was “about 2 fold”. In data set [2] (wild-type mice, 0.5 mg/kg IV, rifampin 30 mg/kg), the “increase in plasma exposure in the presence of rifampin” value turned out to be 5.4 fold. In addition, the “liver exposure (AUC) in the presence vs absence of rifampin” value in data set [2] (wild-type mice, IV, rifampin co-administered) is on record as “did not change significantly; also recorded: comparable”. For the same molecule, the “substrate of OATP1B3” value at OATP1B3 (HEK293 cells overexpressing human OATP1B3) was “responsible for hepatic uptake; also recorded: substrate”. Moreover, the “Jmax (pmol/min/million cells), OATP1B3” value on OATP1B3 (Simcyp input parameter, Table 3) was 24.39 pmol/min/million cells. On OATP1B3 (human, HEK293-FT cells stably transfected with OATP1B3 cDNA, Simcyp input parameter, Table 3), the Michaelis constant (Km) worked out at 4 µM. In addition, the “contribution of OATP1B3 versus OATP1B1 in hepatobiliary clearance” value on OATP1B3 (phenotyping studies) is given as “predominant contribution of OATP1B3 over OATP1B1”.
